Laboratory results from patent US6469166B2, “Thiophenopyrimidines” (Neurocrine Biosciences, Inc., priority 1996, dated 2002).

Molecular target: T1, human CRF receptors (Homo sapiens, UniProt P34998)
T1 construct: expressed in transfected cells; a membrane suspension of the stably transfected cells was used
T1 sequence (P34998 24-415): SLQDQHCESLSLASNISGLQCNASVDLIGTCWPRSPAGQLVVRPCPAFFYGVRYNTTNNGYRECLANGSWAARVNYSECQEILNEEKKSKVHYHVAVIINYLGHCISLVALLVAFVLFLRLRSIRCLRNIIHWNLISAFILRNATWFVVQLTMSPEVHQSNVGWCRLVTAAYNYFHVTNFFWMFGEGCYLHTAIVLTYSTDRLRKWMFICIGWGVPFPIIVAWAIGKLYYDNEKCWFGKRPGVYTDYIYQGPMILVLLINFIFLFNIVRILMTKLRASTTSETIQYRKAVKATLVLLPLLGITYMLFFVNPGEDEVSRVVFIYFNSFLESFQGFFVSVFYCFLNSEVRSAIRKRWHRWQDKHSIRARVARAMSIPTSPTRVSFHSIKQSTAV
Experiment: CRF receptor radioligand binding assay ([125I] tyrosine-ovine CRF displacement)
Settings: compounds found to show the best score in this test
Method: Compounds were evaluated for binding activity to the CRF receptor by a standard radioligand binding assay as generally described by DeSouza et al. (J. Neutrosci. 7:88-100, 1987). By utilizing various radiolabeled CRF ligands, the assay may be used to evaluate the binding activity of the compounds of the present invention with any CRF receptor subtype. Briefly, the binding assay involves the displacement of a radiolabeled CRF ligand from the CRF receptor. More specifically, the binding assay was performed in 1.5 ml Eppendorf tubes using approximately 1×10^6 cells per tube stably transfected with human CRF receptors. Each tube received about 0.1 ml of assay buffer (e.g., Dulbecco's phosphate buffered saline, 10 mM magnesium chloride, 20 μM bacitracin) with or without unlabeled sauvagine, urotensin I or CRF (final concentration, 1 μM) to determine nonspecific binding, 0.1 ml of [^125I] tyrosine-ovine CRF (final concentration ˜200 pM or approximately the KD as determined by Scatchard analysis) and 0.1 ml of a membrane suspension of cells containing the CRF receptor. […] Following two washes of the pellets, the tubes were cut just above the pellet and monitored in a gamma counter for radioactivity at approximately 80% efficiency. All radioligand binding data were analyzed using a non-linear least-square curve-fitting program. […]

- score in the CRF receptor binding test: best score
Compound: CCCN(CCC)c1nc(C)nc2c(-c3c(C)cc(C)cc3C)csc12 [Compound 1, 2-methyl-6-(N,N-dipropylamino)-8-(2,4,6-trimethylphenyl)-thiopheno[3,2-d]pyrimidine]
